Entries after “also recorded” stand apart in the source; their conditions may differ. Blank lines part the entries; values can stand above or below the molecule they belong to.
Tests used:
OCT2 and MATE1 = experiment: Inhibition of basolateral-to-apical transcellular transport of ASP+ in OCT2/MATE1 double-transfected MDCK cells (Transwell); settings: human, probe ASP+ (25 μM, basolateral chamber)
Procedure: (§1) Control and OCT2/MATE1-expressing MDCK cells were evaluated for protein expression of OCT2 and MATE1 using SDS-PAGE and western blotting with specific primary antibodies (OCT2, sc292622 1:500 and MATE1, sc133390 1:250, Santa Cruz Biotechnology, Santa Cruz, CA, USA), followed by an antirabbit HRP-conjugated secondary antibody (1:1000, Sigma Aldrich, St. Louis, MO, USA) and Super Signal Western Dura Extended Duration Substrate (Pierce Biotechnology, Rockford, IL, USA). Detection was performed with a FluorChem imager (ProteinSimple, Santa Clara, CA, USA). Both MDCK cell lines were seeded on 0.4 μm transwell inserts (VWR, Radnor, PA, USA) at a density of 2 × 10^5 cells/cm^2. Transport experiments were performed 3 to 5 days after seeding. The integrity of MDCK monolayers was verified by measuring transepithelial electrical resistance (TEER) >150 Ω*cm^2 using an epithelial voltohmmeter, EVOM^2 (World Precision Instruments, Sarasota, FL). Proper formation of tight junctions was also verified by measurement of passive permeability of lucifer yellow in the basolateral-to-apical (B-to-A) direction. Lucifer yellow (20 μM) was applied to the basolateral chamber for 1 h, and media were collected from the apical chamber.
(§2) After washing the cells once with Hank’s Buffered Saline Solution (HBSS) pH 7.4, transport studies were initiated after aspirating the wash buffer from both the apical and basal chambers. […] Cells were lysed with 1% Triton X-100. […] Intracellular fluorescence was normalized to total protein concentration of cell lysates from each transwell using the BCA assay. Experiments were performed in three individual Transwell inserts.

human OCT2 and MATE1 [1] = experiment: as above; settings: inhibitor 0.5–20 μM
Procedure: as §1, §2

human OCT2 and MATE1 [2] = experiment: Intracellular accumulation of ASP+ in OCT2/MATE1 double-transfected MDCK cells; format: cell-based; settings: 120 min
Procedure: (§3) Cells were incubated with 5-HT3 antagonists in the apical chamber in HBSS pH 6.0 and 5-HT3 antagonists with ASP^+ (25 μM) in the basolateral chamber in HBSS pH 7.4 and incubated at 37 °C for 120 min. To measure time-dependent transcellular transport, an aliquot of the incubation medium (100 μL) from the apical chamber (receiving chamber) was collected at 40, 60, 90, and 120 min and replaced with an equal volume of fresh buffer containing 5-HT3 antagonist or the positive control chemical at the original concentration. […] Cells were lysed with 1% Triton X-100. […] Experiments were performed in three individual Transwell inserts.

[3] = tested on: vector control MDCK cells; experiment: Intracellular accumulation of ASP+ in vector control MDCK cells; format: cell-based, canine; settings: 120 min
Procedure: as §3

[4] = no reference given, cited from earlier work
human OCT2 = target: T1, human OCT2 (Homo sapiens, UniProt O15244); experiment: Inhibition of ASP+ uptake in HEK293 cells overexpressing OCT2; format: cell-based; settings: ASP+ 10 μM
T1 construct: expressed in transfected cells; gift of Dr. Kathy Giacomini, UCSF
T1 sequence (O15244 1-555): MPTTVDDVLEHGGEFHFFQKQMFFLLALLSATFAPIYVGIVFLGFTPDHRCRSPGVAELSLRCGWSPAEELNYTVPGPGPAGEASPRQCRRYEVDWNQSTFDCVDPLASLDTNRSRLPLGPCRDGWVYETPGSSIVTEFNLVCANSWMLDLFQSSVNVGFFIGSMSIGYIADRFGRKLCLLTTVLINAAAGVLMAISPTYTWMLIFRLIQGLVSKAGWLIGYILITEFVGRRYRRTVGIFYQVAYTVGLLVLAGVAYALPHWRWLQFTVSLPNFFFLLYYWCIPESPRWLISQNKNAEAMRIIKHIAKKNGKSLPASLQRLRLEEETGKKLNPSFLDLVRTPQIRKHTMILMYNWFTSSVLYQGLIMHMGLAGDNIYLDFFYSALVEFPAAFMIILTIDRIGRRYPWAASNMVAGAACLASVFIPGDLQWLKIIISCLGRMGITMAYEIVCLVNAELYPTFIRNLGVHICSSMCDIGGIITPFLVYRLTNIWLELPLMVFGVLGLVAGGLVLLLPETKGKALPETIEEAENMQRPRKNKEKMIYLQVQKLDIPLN
Procedure: (§4) After washing once with prewarmed Hank’s Buffered Saline Solution (HBSS), cells were preincubated for 30 min at 37 °C with various 5-HT3 antagonists for OCT2 cells or in a 30 mM NH4Cl solution in HBSS at pH 6.5 for MATE1 cells for intracellular acidification. Uptake into OCT2 cells was initiated through exposure to 10 μM of fluorescent substrate ASP^+ directly in the incubation media. Uptake into MATE1 cells was initiated by application of HBSS at pH 7.4 containing 5-HT3 antagonists and 10 μM of fluorescent substrate ASP^+. […] Media was removed and washed four times with ice-cold HBSS. Cells were lysed with 1% Triton X-100. […] Intracellular fluorescence was normalized to total protein concentration of cell lysates from each well using the bicinchoninic acid (BCA) assay (Pierce Biotechnology, Rockford, IL, USA). Experiments were repeated three separate times, with three to four replicates in each experiment.
(§5) GraphPad Prism v6 (GraphPad Software, La Jolla, CA, USA) was used for statistical analysis.

MATE1 = target: T2, MATE1 (Homo sapiens, UniProt Q96FL8); experiment: Inhibition of ASP+ uptake in HEK293 cells overexpressing MATE1; format: cell-based; settings: inhibitor 10 μM, HEK293-MATE1 (data not shown)
T2 construct: expressed in transfected cells; gift of Dr. Kathy Giacomini, UCSF
T2 sequence (Q96FL8 1-570): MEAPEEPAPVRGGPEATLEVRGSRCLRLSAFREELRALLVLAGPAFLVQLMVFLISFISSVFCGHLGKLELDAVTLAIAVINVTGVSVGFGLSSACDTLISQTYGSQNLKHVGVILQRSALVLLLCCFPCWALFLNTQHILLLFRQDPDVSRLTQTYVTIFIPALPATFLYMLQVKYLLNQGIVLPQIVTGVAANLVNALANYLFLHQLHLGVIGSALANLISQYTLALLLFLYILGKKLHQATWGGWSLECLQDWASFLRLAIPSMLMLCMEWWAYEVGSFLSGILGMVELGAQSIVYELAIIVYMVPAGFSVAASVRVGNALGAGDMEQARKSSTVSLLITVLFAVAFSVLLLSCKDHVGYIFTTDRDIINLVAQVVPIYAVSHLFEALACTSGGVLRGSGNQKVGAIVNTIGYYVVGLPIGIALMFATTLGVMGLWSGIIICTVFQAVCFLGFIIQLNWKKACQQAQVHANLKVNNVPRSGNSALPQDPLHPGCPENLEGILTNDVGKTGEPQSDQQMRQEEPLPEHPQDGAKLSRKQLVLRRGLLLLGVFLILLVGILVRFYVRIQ
Procedure: as §4, §5

[5] = substrate: CN(C)c1ccc(/C=C/c2cc[n+](C)cc2)cc1; experiment: Concentration-dependent uptake of ASP+ in OCT2-expressing HEK293 cells; format: cell-based, human; settings: other: OCT2-expressing HEK293, 0–100 μM, 1 min; 37.0 °C
Procedure: Figure 2 Time and Concentration-Dependent Accumulation of ASP^+ in HEK293 Cells Overexpressing OCT2 or MATE1. HEK cells expressing empty vector (EV), OCT2, or MATE1 were incubated for different time periods (0.5–20 min, 10 μM ASP^+, 37 °C) to evaluate time-dependent uptake (A) or with increasing concentrations of ASP^+ (0–100 μM, 1 min 37 °C) for concentration-dependent uptake (B) on a shaker. Specific transport uptake is shown in dashed lines. Intracellular fluorescence was quantified and normalized to protein concentration. Data are presented as mean ± SE (n = 3).
OCT2- and MATE1-overexpressing HEK293 cells were seeded in clear poly-^D-lysine-coated 24-well plates (Fisher Scientific, Hanover Park, IL, USA) and grown for 24 h until approximately 90% confluent. […]
GraphPad Prism v6 (GraphPad Software, La Jolla, CA, USA) was used for statistical analysis. Km and Vmax were calculated using nonlinear regression (Michaelis–Menten enzyme kinetics equation, (Y = Vmax × X/(Km + X), fit for least squares). Data with two variables were analyzed using a two-way ANOVA followed by a one-way ANOVA and/or Dunnett’s post-hoc test for multiple comparisons. IC50 values were calculated via a nonlinear regression to fit least squares. Differences were considered statistically significant at p < 0.05.

- inhibition at 120 min, 20 μM (OCT2 and MATE1): 36%
- inhibition of basolateral-to-apical transcellular transport of ASP+, up to (human OCT2 and MATE1 [1]): up to 64%
Molecule: Cc1nccn1CC1CCc2c(c3ccccc3n2C)C1=O (centres unmarked) [Ondansetron]
- effect on B-to-A transport of ASP+ (human OCT2 and MATE1 [1]; 40–120 min, ASP+ 25 μM): inhibited the B-to-A transport of ASP^+ in a concentration-dependent manner; also recorded: inhibited the basolateral-to-apical ASP^+ secretion at all concentrations tested
- increase in intracellular ASP+ accumulation (human OCT2 and MATE1 [2]; inhibitor 0.5 and 2.5 μM): 1.3 fold
- effect on intracellular ASP+ accumulation (human OCT2 and MATE1 [2]; inhibitor 0.5–20 μM, ASP+ 25 μM): at concentrations of 0.5 and 2.5 μM caused significant intracellular accumulation of ASP^+; also recorded: no difference compared to vehicle at higher concentrations (10 and 20 μM)
- decrease in accumulation of ASP+ in control cells ([3]; high concentrations of inhibitor): 40%
- half-life [4]: < 6 h
- metabolized by cytochrome P450 enzymes in the liver ([4]; range for the named drugs together): 48–95%

Molecule: Cc1cc2c(s1)Nc1ccccc1N=C2N1CCN(C)CC1 [olanzapine]
- effect on ASP+ uptake in OCT2-expressing HEK293 cells (human OCT2): inhibited OCT2 activity across a range of concentrations
- inhibition of MATE1 activity (MATE1): None of these drugs inhibited MATE1 activity
- decrease in intracellular accumulation of ASP+ (human OCT2 and MATE1 [2]; inhibitor 20 μM): 51%
- effect on intracellular accumulation of ASP+ in control cells ([3]; cimetidine 5 and 50 μM, pyrimethamine 1 μM, olanzapine 20 μM): modest decrease in ASP^+ accumulation

B1: human OCT2 (Homo sapiens) (protein)
chain: T1 sequence (O15244 1-555)
notes: expressed in transfected cells; gift of Dr. Kathy Giacomini, UCSF
- Km [5]: 2.9 µM
- Vmax [5]: 8.1 nmol/mg/min
